Measured values from patent publication US20080207655A1, “Diaminopyrimidines as P2X3 and P2X2/3 modulators” (Roche Palo Alto LLC, priority 2007, published 2008).
Blank lines part the entries; values can stand above or below the compound they belong to.

Columns and labels:
rat P2X3 receptor = biological target: T1, rat P2X3 receptor (Rattus norvegicus, UniProt P49654); assay: P2X3 FLIPR (Fluorometric Imaging Plate Reader) assay, CHO-K1 cells, α,β-meATP-evoked calcium fluorescence; format: cell-based; conditions: agonist α,β-meATP 1 μM
T1 construct: expressed in transfected cells; host or cells: CHO-K1
T1 sequence (P49654 1-397): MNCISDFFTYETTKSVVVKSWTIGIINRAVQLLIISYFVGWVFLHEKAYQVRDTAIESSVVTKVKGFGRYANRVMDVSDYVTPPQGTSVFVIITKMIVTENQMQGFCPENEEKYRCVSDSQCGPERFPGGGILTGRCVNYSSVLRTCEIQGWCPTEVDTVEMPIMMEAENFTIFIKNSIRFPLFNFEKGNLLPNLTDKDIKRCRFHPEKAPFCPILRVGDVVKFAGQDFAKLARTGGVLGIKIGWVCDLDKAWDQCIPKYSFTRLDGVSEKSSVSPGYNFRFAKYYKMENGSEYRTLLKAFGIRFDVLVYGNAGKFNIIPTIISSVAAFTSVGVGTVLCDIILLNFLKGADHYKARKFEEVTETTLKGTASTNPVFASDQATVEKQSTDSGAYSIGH
Method: (§1) CHO-K1 cells were transfected with cloned rat P2X3 or human P2X2/3 receptor subunits and passaged in flasks. 18-24 hours before the FLIPR experiment, cells were released from their flasks, centrifuged, and resuspended in nutrient medium at 2.5×10^5 cells/ml. The cells were aliquoted into black-walled 96-well plates at a density of 50,000 cells/well and incubated overnight in 5% CO2 at 37° C. On the day of the experiment, cells were washed in FLIPR buffer (calcium- and magnesium-free Hank's balanced salt solution, 10 mM HEPES, 2 mM CaCl2, 2.5 mM probenecid; FB). Each well received 100 μl FB and 100 μl of the fluorescent dye Fluo-3 AM [2 μM final conc.]. […]
(§2) Test compounds (dissolved in DMSO at 10 mM and serially diluted with FB) or vehicle were added to each well (25 μl of a 4× solution) and allowed to equilibrate for 20 minutes at room temperature. […] Fluorescence was measured for an additional 2 minutes at 1 second intervals after agonist addition. A final addition of ionomycin (5 μM, final concentration) was made to each well of the FLIPR test plate to establish cell viability and maximum fluorescence of dye-bound cytosolic calcium. Peak fluorescence in response to the addition of α,β-meATP (in the absence and presence of test compounds) was measured and inhibition curves generated using nonlinear regression. […]

human P2X2/3 receptor = biological target: T2, human P2X2/3 receptor (Homo sapiens, UniProt P56373+Q9UBL9); assay: P2X2/3 FLIPR (Fluorometric Imaging Plate Reader) assay, CHO-K1 cells, α,β-meATP-evoked calcium fluorescence; format: cell-based; conditions: agonist α,β-meATP 5 μM
T2 construct: expressed in transfected cells; host or cells: CHO-K1
T2 sequence (Q9UBL9 1-471): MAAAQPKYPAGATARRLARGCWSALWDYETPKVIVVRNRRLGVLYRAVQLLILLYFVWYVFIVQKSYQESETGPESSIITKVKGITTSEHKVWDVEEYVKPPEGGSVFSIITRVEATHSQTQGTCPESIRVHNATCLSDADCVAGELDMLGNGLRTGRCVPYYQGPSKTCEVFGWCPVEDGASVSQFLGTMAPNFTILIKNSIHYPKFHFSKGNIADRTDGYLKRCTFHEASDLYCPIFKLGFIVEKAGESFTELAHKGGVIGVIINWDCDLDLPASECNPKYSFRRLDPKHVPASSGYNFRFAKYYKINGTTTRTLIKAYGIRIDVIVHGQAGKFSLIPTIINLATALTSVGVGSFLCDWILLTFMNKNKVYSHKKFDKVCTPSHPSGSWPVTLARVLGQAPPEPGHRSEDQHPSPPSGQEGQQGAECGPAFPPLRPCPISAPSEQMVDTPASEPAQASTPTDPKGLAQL
T2 sequence (P56373 1-397): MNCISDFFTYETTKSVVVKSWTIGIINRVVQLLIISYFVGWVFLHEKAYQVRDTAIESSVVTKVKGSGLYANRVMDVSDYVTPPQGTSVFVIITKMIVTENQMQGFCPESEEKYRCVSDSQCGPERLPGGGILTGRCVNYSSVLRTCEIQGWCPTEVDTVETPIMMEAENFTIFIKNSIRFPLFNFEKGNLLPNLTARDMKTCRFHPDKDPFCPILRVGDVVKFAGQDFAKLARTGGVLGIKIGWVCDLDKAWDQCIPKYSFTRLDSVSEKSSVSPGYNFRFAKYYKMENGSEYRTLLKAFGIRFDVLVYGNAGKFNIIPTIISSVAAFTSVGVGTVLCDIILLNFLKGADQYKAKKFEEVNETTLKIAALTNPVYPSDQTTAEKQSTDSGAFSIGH
Method: as §1, §2

IC50 (rat P2X3 receptor; read-out: pIC50 for the P2X3 receptor (converted)): 9.77 nM
IC50 (human P2X2/3 receptor; read-out: pIC50 for the P2X2/3 receptor (converted)): 41.7 nM
Structure (SMILES): COc1cc(C(C)C)c(Oc2cnc(N)nc2N)cc1I [1b, 5-(5-Iodo-2-isopropyl-4-methoxy-phenoxy)-pyrimidine-2,4-diamine, reference compound]

pIC50 for the P2X3 receptor (rat P2X3 receptor): approximately 8.24
pIC50 for the P2X2/3 receptor (human P2X2/3 receptor): approximately 7.99
Structure (SMILES): C#Cc1cc(Oc2cnc(N)nc2N)c(C(C)C)cc1O [4-(2,4-Diamino-pyrimidin-5-yloxy)-2-ethynyl-5-isopropyl-phenol]

melting point: 180 to 180.9 °C
Structure (SMILES): COc1cc(C(C)C)c(Oc2cnc(NC(CO)CO)nc2N)cc1S(N)(=O)=O [2a, 5-[4-Amino-2-(2-hydroxy-1-hydroxymethyl-ethylamino)-pyrimidin-5-yloxy]-4-isopropyl-2-methoxy-benzenesulfonamide]

melting point: 135.5 to 139.1 °C
Structure (SMILES): C#Cc1cc(Oc2cnc(NC(CO)CO)nc2N)c(C(C)C)cc1OC [4a, 2-[4-Amino-5-(5-ethynyl-2-isopropyl-4-methoxy-phenoxy)-pyrimidin-2-ylamino]-propane-1,3-diol]
